Results: PubChem BioAssay AID1845217 (Molecular Pharmacology Branch, DTP, NCI, 2023)

System: VA-ES-BJ tumor spheroid viability
Assay: Anticancer human tumor VA-ES-BJ cell line growth inhibition;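 also: spheroids exposed to compounds for seven days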;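 as to viability, T/C: percent of DMSO vehicle control viability so 100% = untreated growth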
Conditions: spheroids with HUVEC and MSC; for IC50: curve of first compound; for viability, T/C: stronger effect = lower value
Summary of the method: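 Complex tumor spheroids combined malignant cells with endothelial cells and mesenchymal stem cells. DNA-damaging drugs and DNA repair inhibitors were tested alone and in combination, at half-log dilutions down from clinical Cmax (top 10 microM if Cmax unknown), 0.25% DMSO final.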

SMILES: O=C(c1cc(Cc2n[nH]c(=O)c3ccccc23)ccc1F)N1CCN(C(=O)C2CC2)CC1 + COc1cc2c(cc1O)CCNC21CSC2c3c(OC(C)=O)c(C)c4c(c3C(COC1=O)N1C(O)C3Cc5cc(C)c(OC)c(O)c5C(C21)N3C)OCO4
- IC50 (second compound 30 pM): 19000 nM
- IC50 (second compound 94.9 pM): 11100 nM
- IC50 (second compound 0.0003 µM): < 94.9 nM
- IC50 (second compound 0.000949 µM): < 94.9 nM
- IC50 (second compound 0.003 µM): < 94.9 nM
- viability, T/C (second compound 30 pM, first compound 0.0949 µM): 86%
- viability, T/C (second compound 30 pM, first compound 0.3 µM): 95.8%
- viability, T/C (second compound 30 pM, first compound 0.949 µM): 99%
- viability, T/C (second compound 30 pM, first compound 3 µM): 91%
- viability, T/C (second compound 30 pM, first compound 9.49 µM): 65%
- viability, T/C (second compound 30 pM, first compound 30 µM): 40.1%
- viability, T/C (second compound 94.9 pM, first compound 0.0949 µM): 90.5%
- viability, T/C (second compound 94.9 pM, first compound 0.3 µM): 84.7%
- viability, T/C (second compound 94.9 pM, first compound 0.949 µM): 86.9%
- viability, T/C (second compound 94.9 pM, first compound 3 µM): 76.9%
- viability, T/C (second compound 94.9 pM, first compound 9.49 µM): 54.1%
- viability, T/C (second compound 94.9 pM, first compound 30 µM): 24.4%
- viability, T/C (second compound 0.0003 µM, first compound 0.0949 µM): 44.3%
- viability, T/C (second compound 0.0003 µM, first compound 0.3 µM): 40.7%
- viability, T/C (second compound 0.0003 µM, first compound 0.949 µM): 43.6%
- viability, T/C (second compound 0.0003 µM, first compound 3 µM): 33.2%
- viability, T/C (second compound 0.0003 µM, first compound 9.49 µM): 16.1%
- viability, T/C (second compound 0.0003 µM, first compound 30 µM): 5.05%
- viability, T/C (second compound 0.000949 µM, first compound 0.0949 µM): 3.35%
- viability, T/C (second compound 0.000949 µM, first compound 0.3 µM): 2.46%
- viability, T/C (second compound 0.000949 µM, first compound 0.949 µM): 3.04%
- viability, T/C (second compound 0.000949 µM, first compound 3 µM): 2.86%
- viability, T/C (second compound 0.000949 µM, first compound 9.49 µM): 1.46%
- viability, T/C (second compound 0.000949 µM, first compound 30 µM): 0.33%
- viability, T/C (second compound 0.003 µM, first compound 0.0949 µM): 1.2%
- viability, T/C (second compound 0.003 µM, first compound 0.3 µM): 1.64%
- viability, T/C (second compound 0.003 µM, first compound 0.949 µM): 1.77%
- viability, T/C (second compound 0.003 µM, first compound 3 µM): 2.03%
- viability, T/C (second compound 0.003 µM, first compound 9.49 µM): 3.45%
- viability, T/C (second compound 0.003 µM, first compound 30 µM): 4.01%

SMILES: CC1COCCN1c1cc(-c2ccnn2C)c2ccnc(-c3ccn[nH]3)c2n1 (stereo not given) + Cn1nnc2c(C(N)=O)ncn2c1=O
- IC50 (second compound 1 µM): 118 nM
- IC50 (second compound 3.16 µM): 127 nM
- IC50 (second compound 10 µM): 111 nM
- IC50 (second compound 31.6 µM): 84.1 nM
- IC50 (second compound 100 µM): 56.1 nM
- viability, T/C (second compound 1 µM, first compound 0.0316 µM): 94.7%
- viability, T/C (second compound 1 µM, first compound 0.1 µM): 52.9%
- viability, T/C (second compound 1 µM, first compound 0.316 µM): 29%
- viability, T/C (second compound 1 µM, first compound 1 µM): 8.26%
- viability, T/C (second compound 1 µM, first compound 3.16 µM): 6.9%
- viability, T/C (second compound 1 µM, first compound 10 µM): 6.16%
- viability, T/C (second compound 3.16 µM, first compound 0.0316 µM): 85.2%
- viability, T/C (second compound 3.16 µM, first compound 0.1 µM): 54.7%
- viability, T/C (second compound 3.16 µM, first compound 0.316 µM): 30.1%
- viability, T/C (second compound 3.16 µM, first compound 1 µM): 9.03%
- viability, T/C (second compound 3.16 µM, first compound 3.16 µM): 6.96%
- viability, T/C (second compound 3.16 µM, first compound 10 µM): 5.94%
- viability, T/C (second compound 10 µM, first compound 0.0316 µM): 87.7%
- viability, T/C (second compound 10 µM, first compound 0.1 µM): 51.8%
- viability, T/C (second compound 10 µM, first compound 0.316 µM): 26.4%
- viability, T/C (second compound 10 µM, first compound 1 µM): 8.47%
- viability, T/C (second compound 10 µM, first compound 3.16 µM): 6.49%
- viability, T/C (second compound 10 µM, first compound 10 µM): 6.12%
- viability, T/C (second compound 31.6 µM, first compound 0.0316 µM): 81.3%
- viability, T/C (second compound 31.6 µM, first compound 0.1 µM): 44%
- viability, T/C (second compound 31.6 µM, first compound 0.316 µM): 23.2%
- viability, T/C (second compound 31.6 µM, first compound 1 µM): 9.91%
- viability, T/C (second compound 31.6 µM, first compound 3.16 µM): 6.7%
- viability, T/C (second compound 31.6 µM, first compound 10 µM): 5.99%
- viability, T/C (second compound 100 µM, first compound 0.0316 µM): 62.7%
- viability, T/C (second compound 100 µM, first compound 0.1 µM): 37.2%
- viability, T/C (second compound 100 µM, first compound 0.316 µM): 18.4%
- viability, T/C (second compound 100 µM, first compound 1 µM): 8.87%
- viability, T/C (second compound 100 µM, first compound 3.16 µM): 6.58%
- viability, T/C (second compound 100 µM, first compound 10 µM): 5.6%
